The record followed here is PMC9181188 (International Journal of Molecular Sciences, 2022).

Molecules are shown by their SMILES. ≈ marks a conversion by molar mass, not a printed value. Where two headings read alike, the source gives them in different places.

Assay [1] has as its target T1, S. aureus topoisomerase IV (Staphylococcus aureus, UniProt P0C1S7+P0C1U9).
T1 construct: purchased Inspiralis
In words: S. aureus topoisomerase IV decatenation assay. The class given is biochemical. Here is the method: The assay was performed using S. aureus topoisomerase IV […] kit (Inspiralis). Kinetoplast DNA (kDNA) was the substrate for topoisomerase IV.

Assay [2] addresses T2, S. aureus DNA gyrase (Staphylococcus aureus, UniProt P0A0K8+P20831). Particulars: read-out: IC50 for Gyrase; inhibition of DNA supercoiling, 30 min at 37 °C.
Procedure: (§1) The assay was performed using S. aureus DNA Gyrase Supercoiling kit (Inspiralis). […] Samples were vortexed, centrifuged, and 20 µL of the aqueous phase of each sample was loaded onto a 1% agarose gel and left for 30 min prior to electrophoresis to allow diffusion of salt. Electrophoresis was conducted in TAE buffer for 3 h at 50 V. Gels were stained with ethidium bromide and visualized under UV light in a transilluminator (ChemiDoc MP, Bio Rad, Warsaw, Poland).
Assay [3] concerns SW480 cells. Put plainly: MTT assay, SW480. It is filed as cell-based, human. Particulars: for IC50: Homo sapiens, SW480, 72 h, human primary colon cancer, 72 h, MTT, mean ± SD; for SI SW480: SI = IC50 for normal cell line (HaCaT)/IC50 cancer cell line. (Formazan colour is commonly taken as a measure of viable cells.)
The subject of assay [4] is SW620 cells. Put plainly: MTT assay, SW620. To be noted: for IC50: Homo sapiens, SW-620, 72 h, human metastatic colon cancer, 72 h, MTT, mean ± SD; for SI SW620: SI = IC50 for normal cell line (HaCaT)/IC50 cancer cell line. The class given is cell-based, human.
In assay [5] the test system is PC3 cells. Put plainly: MTT assay, PC3. To be noted: for IC50: human metastatic prostate cancer, 72 h, MTT, mean ± SD; for SI PC3: SI = IC50 for normal cell line (HaCaT)/IC50 cancer cell line. The class given is cell-based, human.
Assay [6] has as its system HaCaT cells. Put plainly: MTT assay, HaCaT normal cells. The class given is cell-based. To be noted: human immortal keratinocyte cell line, 72 h, mean ± SD.
Assay [7] deals with S. aureus NCTC 4163. In words: MIC, twofold microdilution, standard strain. The class given is cell-based. Particulars: Staphylococcus aureus, NCTC4163; 18 h of treatment; read-out: MIC S. aureus NCTC 4163.
For assay [8], the system named is S. aureus ATCC 25923. In words: MIC, twofold microdilution, standard strain. It is filed as cell-based. Particulars: Staphylococcus aureus, ATCC25923; 18 h of treatment; read-out: MIC S. aureus ATCC 25923. In general terms: In broth dilution the organism is exposed to a series of concentrations in liquid medium.
For assay [9], the system named is S. aureus ATCC 6538. Put plainly: MIC, twofold microdilution, standard strain. The class given is cell-based. Particulars: Staphylococcus aureus, ATCC6538; 18 h of treatment; read-out: MIC S. aureus ATCC 6538.
Assay [10] has as its system S. aureus ATCC 29213. In words: MIC, twofold microdilution, standard strain. It is filed as cell-based. Particulars: Staphylococcus aureus, ATCC29213; 18 h of treatment; read-out: MIC S. aureus ATCC 29213.
Assay [11] deals with S. epidermidis ATCC 12228. Put plainly: MIC, twofold microdilution, standard strain. It is filed as cell-based. Particulars: Staphylococcus epidermidis, ATCC12228; 18 h of treatment; read-out: MIC S. epidermidis ATCC 12228.
Assay [12] relates to S. epidermidis ATCC 35984. Put plainly: MIC, twofold microdilution, standard strain. The class given is cell-based. Particulars: Staphylococcus epidermidis, ATCC35984; 18 h of treatment; read-out: MIC S. epidermidis ATCC 35984.
In assay [13] the test system is E. coli ATCC 25922. In words: MIC, twofold microdilution, standard strain. It is filed as cell-based, Escherichia coli. To be noted: for MIC: Escherichia coli, read-out: MIC E. coli ATCC 25922.
The test system of assay [14] is P. aeruginosa ATCC 27853. In words: MIC, twofold microdilution, standard strain. It is filed as cell-based. Particulars: Pseudomonas aeruginosa, ATCC27853; 18 h of treatment; read-out: MIC P. aeruginosa ATCC 27853.
Assay [15] has as its system S. epidermidis KR 4047 825/19. In words: MIC, clinical S. epidermidis strain. Particulars: Staphylococcus epidermidis, KR4047825/19, quinolone-resistant, 18 h of treatment. The class given is cell-based.
The test system of assay [16] is S. epidermidis KR 4243 829/19. Put plainly: MIC, clinical S. epidermidis strain. The class given is cell-based. Particulars: Staphylococcus epidermidis, KR4243829/19, quinolone-susceptible, 18 h of treatment.
Assay [17] relates to S. epidermidis KR 4313 834/19. In words: MIC, clinical S. epidermidis strain. The class given is cell-based. To be noted: Staphylococcus epidermidis, KR4313834/19, quinolone-susceptible, 18 h of treatment.
Assay [18] concerns S. epidermidis KR 4358/2 840/19. Put plainly: MIC, clinical S. epidermidis strain. Particulars: Staphylococcus epidermidis, KR4358/2840/19; clinical S. epidermidis, quinolone-susceptible, 18 h of treatment; read-out: MIC KR 4358/2 840/19. It is filed as cell-based.
The test system of assay [19] is S. epidermidis T 5253 845/19. In words: MIC, clinical S. epidermidis strain. It is filed as cell-based. To be noted: Staphylococcus epidermidis, T5253845/19, quinolone-resistant, 18 h of treatment.
The subject of assay [20] is S. epidermidis T 5399 848/19. Put plainly: MIC, clinical S. epidermidis strain. The class given is cell-based. Particulars: Staphylococcus epidermidis, T5399848/19, quinolone-susceptible, 18 h of treatment.
Assay [21] relates to S. epidermidis T 5501 851/19. Put plainly: MIC, clinical S. epidermidis strain. It is filed as cell-based. To be noted: Staphylococcus epidermidis, T5501851/19, read-out: MIC T 5501 851/19, quinolone-susceptible, 18 h of treatment.
For assay [22], the system named is M. tuberculosis H37Rv. Put plainly: MABA (microplate Alamar blue assay) MIC. It is filed as cell-based. Particulars: Mycobacterium tuberculosis, 336 h, 2 weeks of treatment, read-out: MIC M. tuberculosis H37Rv. (Resazurin is reduced to fluorescent resorufin, in cell work by metabolically active cells.)
The test system of assay [23] is M. tuberculosis Spec. 192 (Sensitive to Tuberculostatics). Put plainly: MABA (microplate Alamar blue assay) MIC. The class given is cell-based. To be noted: Mycobacterium tuberculosis, 336 h, read-out: MIC M. tuberculosis Spec. 192 (Sensitive to Tuberculostatics).
Assay [24] relates to standard staphylococci (S. aureus, S. epidermidis). In words: MIC, standard Gram-positive strains as a group. Particulars: Staphylococcus aureus; range over standard Gram-positive strains; read-out: MIC against standard staphylococci. It is filed as cell-based.
Assay [25] has as its system quinolone-susceptible clinical coagulase-negative staphylococci. Put plainly: MIC, quinolone-susceptible clinical isolates as a group. The class given is cell-based. Particulars: Staphylococcus epidermidis; five quinolone-susceptible isolates; read-out: MIC against quinolone-susceptible clinical isolates.
Assay [26] has as its system M. tuberculosis strains. In words: MABA MIC, mycobacterial strains as a group. The class given is cell-based. Particulars: Mycobacterium tuberculosis, read-out: MIC antimycobacterial (strain not specified).
The target of assay [27] is T2, S. aureus DNA gyrase. In words: biochemical.
Procedure: as §1
For assay [28], the system named is SW480, SW620, and PC3 cancer cell lines. Put plainly: MTT assay, cancer cell lines as a group. To be noted: Homo sapiens, 72 h, all three cancer cell lines (SW480, SW620, PC3), read-out: IC50 against all tested cancer cell lines. The class given is cell-based, human.
Assay [29] has as its system quinolone-resistant isolates (KR 4047 and T5253). Put plainly: MIC, quinolone-resistant clinical isolates as a group. To be noted: Staphylococcus epidermidis, read-out: MIC against quinolone-resistant clinical isolates. The class given is cell-based.

T2 sequence (P20831 whole entry): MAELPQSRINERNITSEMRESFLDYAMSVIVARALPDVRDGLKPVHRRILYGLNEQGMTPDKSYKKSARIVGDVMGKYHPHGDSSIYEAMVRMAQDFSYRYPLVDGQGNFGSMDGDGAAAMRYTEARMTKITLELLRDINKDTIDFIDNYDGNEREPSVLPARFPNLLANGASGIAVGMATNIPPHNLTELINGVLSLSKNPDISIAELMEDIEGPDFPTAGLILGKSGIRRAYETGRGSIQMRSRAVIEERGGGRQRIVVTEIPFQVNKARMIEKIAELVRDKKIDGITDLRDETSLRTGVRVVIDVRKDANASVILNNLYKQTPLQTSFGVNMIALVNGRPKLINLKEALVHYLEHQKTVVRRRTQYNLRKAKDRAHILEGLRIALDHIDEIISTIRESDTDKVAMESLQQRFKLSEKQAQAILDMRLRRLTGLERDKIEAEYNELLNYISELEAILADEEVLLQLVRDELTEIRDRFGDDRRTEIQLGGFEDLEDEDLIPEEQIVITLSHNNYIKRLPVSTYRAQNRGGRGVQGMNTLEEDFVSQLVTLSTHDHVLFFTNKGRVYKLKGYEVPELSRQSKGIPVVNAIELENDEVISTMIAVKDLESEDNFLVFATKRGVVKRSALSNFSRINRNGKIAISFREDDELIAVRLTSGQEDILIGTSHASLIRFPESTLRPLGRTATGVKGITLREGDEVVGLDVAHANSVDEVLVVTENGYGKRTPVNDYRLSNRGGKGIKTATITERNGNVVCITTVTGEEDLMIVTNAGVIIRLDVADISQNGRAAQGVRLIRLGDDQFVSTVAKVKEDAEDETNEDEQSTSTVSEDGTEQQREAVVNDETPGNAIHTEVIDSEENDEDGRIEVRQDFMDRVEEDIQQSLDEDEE
T2 sequence (P0A0K8 whole entry): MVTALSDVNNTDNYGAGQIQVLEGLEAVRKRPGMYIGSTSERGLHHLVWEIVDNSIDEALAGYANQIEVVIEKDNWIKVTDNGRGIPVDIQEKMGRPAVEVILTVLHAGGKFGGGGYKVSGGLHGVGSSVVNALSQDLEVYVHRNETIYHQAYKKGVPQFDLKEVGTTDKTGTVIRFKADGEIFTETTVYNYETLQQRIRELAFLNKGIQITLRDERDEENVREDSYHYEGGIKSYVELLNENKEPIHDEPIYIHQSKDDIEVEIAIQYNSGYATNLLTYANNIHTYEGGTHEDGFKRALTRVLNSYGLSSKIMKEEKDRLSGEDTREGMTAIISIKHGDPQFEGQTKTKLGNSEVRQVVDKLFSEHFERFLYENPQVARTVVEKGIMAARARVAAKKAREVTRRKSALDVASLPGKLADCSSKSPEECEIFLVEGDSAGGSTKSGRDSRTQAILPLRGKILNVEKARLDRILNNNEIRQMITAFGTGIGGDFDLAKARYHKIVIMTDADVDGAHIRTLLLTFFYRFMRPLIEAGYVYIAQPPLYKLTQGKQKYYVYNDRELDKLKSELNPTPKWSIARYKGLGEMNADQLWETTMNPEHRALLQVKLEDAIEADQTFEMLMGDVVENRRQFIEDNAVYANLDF
T1 sequence (P0C1U9 whole entry): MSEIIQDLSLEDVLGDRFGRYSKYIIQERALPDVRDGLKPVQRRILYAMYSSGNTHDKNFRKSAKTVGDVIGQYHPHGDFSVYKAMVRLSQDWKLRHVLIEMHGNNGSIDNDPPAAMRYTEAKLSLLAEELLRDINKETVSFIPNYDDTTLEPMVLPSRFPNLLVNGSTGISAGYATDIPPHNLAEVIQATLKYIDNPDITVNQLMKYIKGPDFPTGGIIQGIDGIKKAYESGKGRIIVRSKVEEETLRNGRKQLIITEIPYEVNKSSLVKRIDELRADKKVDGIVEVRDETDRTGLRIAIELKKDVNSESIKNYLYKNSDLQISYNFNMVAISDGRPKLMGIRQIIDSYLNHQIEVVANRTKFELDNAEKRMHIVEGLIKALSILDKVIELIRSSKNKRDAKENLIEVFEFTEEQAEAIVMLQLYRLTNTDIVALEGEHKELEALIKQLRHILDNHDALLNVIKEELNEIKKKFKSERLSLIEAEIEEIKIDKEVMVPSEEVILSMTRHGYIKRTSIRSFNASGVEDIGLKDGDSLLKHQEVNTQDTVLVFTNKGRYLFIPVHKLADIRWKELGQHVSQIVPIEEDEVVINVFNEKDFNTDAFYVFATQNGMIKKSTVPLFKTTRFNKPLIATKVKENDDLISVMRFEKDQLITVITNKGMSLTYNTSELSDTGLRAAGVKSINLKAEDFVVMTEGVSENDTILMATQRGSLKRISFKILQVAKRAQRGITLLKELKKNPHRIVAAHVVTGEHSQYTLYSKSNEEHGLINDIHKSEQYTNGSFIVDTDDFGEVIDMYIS
T1 sequence (P0C1S7 whole entry): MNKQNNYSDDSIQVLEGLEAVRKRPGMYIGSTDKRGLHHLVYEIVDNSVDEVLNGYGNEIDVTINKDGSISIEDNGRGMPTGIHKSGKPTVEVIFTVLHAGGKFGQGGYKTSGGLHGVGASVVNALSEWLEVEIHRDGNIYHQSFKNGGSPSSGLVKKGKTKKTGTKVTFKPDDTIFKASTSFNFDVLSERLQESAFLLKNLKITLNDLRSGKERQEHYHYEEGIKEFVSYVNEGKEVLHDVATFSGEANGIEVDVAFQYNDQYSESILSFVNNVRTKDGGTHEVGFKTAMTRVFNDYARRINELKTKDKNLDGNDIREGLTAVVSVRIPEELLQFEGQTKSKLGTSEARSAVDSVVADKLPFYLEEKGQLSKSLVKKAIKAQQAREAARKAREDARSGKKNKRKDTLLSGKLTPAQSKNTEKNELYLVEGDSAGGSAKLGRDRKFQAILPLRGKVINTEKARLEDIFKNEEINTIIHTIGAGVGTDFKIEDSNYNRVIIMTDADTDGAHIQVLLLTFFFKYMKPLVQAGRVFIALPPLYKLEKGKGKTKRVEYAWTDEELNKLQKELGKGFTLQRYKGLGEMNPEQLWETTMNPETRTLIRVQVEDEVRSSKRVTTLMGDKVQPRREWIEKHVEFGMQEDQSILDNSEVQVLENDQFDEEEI

As for `CCC=CCC=CCC=CCC=CCC=CCC=CCCC(=O)N1CCN(c2cc3c(cc2F)c(=O)c(C(=O)O)cn3C2CC2)CC1` [Compound 8], the IC50 was over 99.7 µM in assay [1] (read-out: IC50 for Topo IV, inhibition of kDNA decatenation, 30 min at 37 °C) and over 99.7 µM in [2].

Turning to `COc1c(N2CC3CCCN(C(C)=O)C3C2)c(F)cc2c(=O)c(C(=O)O)cn(C3CC3)c12` (stereo not shown) [Compound 14m, 7-(1-Acetyl-octahydro-pyrrolo[3,4-b]pyridin-6-yl)-1-cyclopropyl-6-fluoro-8-methoxy-4-oxo-1,4-dihydro-quinoline-3-carboxylic acid], the IC50 in [3] was 14.3 ± 3.2 µM; in [4] it was 18.4 ± 3.2 µM; in assay [5] (Homo sapiens, PC-3, 72 h), 12.5 ± 1.6 µM; in assay [6] it was 86.5 ± 2.1 µM; in assay [1], 135 µM; in assay [27], 133 µM. In [3], the “SI SW480” value is on record as 6.0. Besides, the “SI SW620” value in assay [4] stood at 4.7. In assay [5], the “SI PC3” value came out at 6.9. In addition, the MIC was found to be 0.25 µg/mL (≈ 0.564 µM) in assay [7]; 0.25 µg/mL (≈ 0.564 µM) in assay [8]; 0.25 µg/mL (≈ 0.564 µM) in assay [9]; 0.5 µg/mL (≈ 1.13 µM) in assay [10]; 0.5 µg/mL (≈ 1.13 µM) in assay [11]; 0.5 µg/mL (≈ 1.13 µM) in assay [12]. Besides, the MIC in [13] (ATCC25922, 18 h of treatment) was 8 µg/mL (≈ 18 µM); in assay [14], over 512 µg/mL; in assay [15] it was 32 µg/mL (≈ 72.2 µM); in assay [16], 0.5 µg/mL (≈ 1.13 µM); in assay [17], 0.5 µg/mL (≈ 1.13 µM); in assay [18], 0.5 µg/mL (≈ 1.13 µM). For the same molecule, the MIC in [19] is 32 µg/mL (≈ 72.2 µM); in assay [20] it was 0.5 µg/mL (≈ 1.13 µM); in assay [21], 0.5 µg/mL (≈ 1.13 µM); in [22], 64 µg/mL (≈ 144 µM); in assay [23] (2 weeks of treatment) it was 64 µg/mL (≈ 144 µM); in assay [24], 0.25 to 1 µg/mL (≈ 0.564 to 2.25 µM). Further, the MIC in [25] was 0.5 µg/mL (≈ 1.13 µM); in assay [26] (summary over strains) it was 64 µg/mL (≈ 144 µM). Also, the “MIC E. coli ATCC 25922” value in [13] (18 h of treatment) was 2 to 16 µg/mL.

As to `CCCCCCCC(=O)N1CCCC2CN(c3c(F)cc4c(=O)c(C(=O)O)cn(C5CC5)c4c3OC)CC21` (stereo not shown) [Compound 15m, 1-Cyclopropyl-6-fluoro-8-methoxy-7-(1-octanoyl-octahydro-pyrrolo[3,4-b]pyridin-6-yl)-4-oxo-1,4-dihydro-quinoline-3-carboxylic acid], the 50% inhibitory concentration (IC50) in assay [3] is 3.2 ± 0.8 µM; in assay [4], 4.7 ± 1.5 µM; in [5] (Homo sapiens, PC-3, 72 h), under 5 µM; in assay [5] it was 3.1 ± 0.9 µM; in assay [6], 87.2 ± 3.6 µM; in [28], under 5 µM. For the same molecule, the “SI SW480” value in assay [3] came to 27.3. Moreover, the “SI SW620” value in [4] came out at 18.6. For the same molecule, the “SI PC3” value in [5] stood at 28.1. In addition, the MIC in assay [7] came out at 4 µg/mL (≈ 7.58 µM); in assay [8], 4 µg/mL (≈ 7.58 µM); in [9], 4 µg/mL (≈ 7.58 µM); in assay [10] it was 4 µg/mL (≈ 7.58 µM); in [11], 4 µg/mL (≈ 7.58 µM); in assay [12], 8 µg/mL (≈ 15.2 µM). Further, the MIC in assay [13] (ATCC25922, 18 h) amounted to 128 µg/mL (≈ 243 µM); in assay [14], 512 µg/mL (≈ 970 µM); in assay [15] it was 8 µg/mL (≈ 15.2 µM); in assay [16], 8 µg/mL (≈ 15.2 µM); in assay [17], 8 µg/mL (≈ 15.2 µM); in assay [18], 8 µg/mL (≈ 15.2 µM). Further, the MIC in [19] is 8 µg/mL (≈ 15.2 µM); in [20], 4 µg/mL (≈ 7.58 µM); in [21] it was 8 µg/mL (≈ 15.2 µM); in assay [22], 256 µg/mL (≈ 485 µM); in assay [23] it was 128 µg/mL (≈ 243 µM); in [24], 4 to 8 µg/mL (≈ 7.58 to 15.2 µM). Also, the MIC is 8 µg/mL (≈ 15.2 µM) in [29] and at least 128 µg/mL in assay [26].

As a reminder, the IC50 is the concentration needed to halve the response being measured.
